Laboratory results: patent publication US5550110A, “Endothelin Antagonists II” (Warner-Lambert Company, priority 1994, dated 1996)
Peptide text beside a SMILES is read from it.

How the values were obtained:
[1] = biological target: T1, rat recombinant ETB receptor (CHO cells) (Rattus norvegicus, UniProt P21451); assay: Inhibition of ET-1 stimulated arachidonic acid release (AAR-B); format: cell-based; details: ET-1 0.3 nM
T1 construct: expressed in transfected cells; host or cells: CHO cells
T1 sequence (P21451 27-442): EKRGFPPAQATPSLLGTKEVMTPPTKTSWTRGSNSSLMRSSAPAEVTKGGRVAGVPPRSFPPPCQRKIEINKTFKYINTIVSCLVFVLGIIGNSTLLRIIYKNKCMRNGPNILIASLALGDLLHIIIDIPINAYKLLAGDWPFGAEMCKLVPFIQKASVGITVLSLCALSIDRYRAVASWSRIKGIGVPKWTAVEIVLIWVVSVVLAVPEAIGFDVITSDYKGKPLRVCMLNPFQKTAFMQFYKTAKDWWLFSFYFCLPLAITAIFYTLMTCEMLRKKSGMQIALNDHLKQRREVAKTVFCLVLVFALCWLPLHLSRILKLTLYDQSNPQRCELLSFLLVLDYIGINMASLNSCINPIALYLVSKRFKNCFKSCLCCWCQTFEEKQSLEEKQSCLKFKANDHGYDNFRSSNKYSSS
Procedure: (§1) In Vitro Inhibition of ET-1 Stimulated Arachidonic Acid Release in Cultured Rabbit Vascular Smooth Muscle Cells (AAR-A) or CHO Cells Expressing Rat Recombinant ETB Receptor (AAR-B) by Compounds of Formula I
(§2) Antagonist activity is measured by the ability of added compounds to reduce endothelin-stimulated arachidonic acid release in cultured vascular smooth muscle cells as arachidonic acid release (AAR). [^3 H] Arachidonic Acid Loading Media (LM) is DME/F12+0.5% fetal calf serum (FCS)×0.25 mCi/mL [^3 H] arachidonic acid (Amersham). Confluent monolayers of cultured rabbit renal artery vascular smooth muscle cells (AAR-A) or CHO cells expressing rat recombinant ETB receptor (AAR-B) were incubated in 0.5 mL of the LM over 18 hours, at 37° C., in 5% CO2. The LM was aspirated and the cells were washed once with the assay buffer (Hank's balanced salt solution [BSS]+10 mM HEPES+fatty acid-free BSA (1 mg/mL)), and incubated for 5 minutes with 1 mL of the prewarmed assay buffer. This solution was aspirated, followed by an additional 1 mL of prewarmed assay buffer, and further incubated for another 5 minutes. A final 5-minute incubation was carried out in a similar manner. The same procedure was repeated with the inclusion of 10 μL of the test compound (1 nM to 1 μM) and 10 μL ET-1 (0.3 nM) and the incubation was extended for 30 minutes. This solution was then collected, […] of scintillation cocktail was added, and the amount of [^3 H] arachidonic acid was determined in a liquid scintillation counter.

ET-1 pressor activity = assay: Conscious rat duration of action study; format: in vivo; details: 10 mg/kg IV; for inhibition of ET-1 pressor activity: ganglionically blocked conscious rats, n=4
Source text: Conscious Rat Duration of Action Study
Nonfasted rats (350-500 g) were used and anesthetized with Metofane (methoxyflurane) by inhalation. The rats were jugular cannulated (PE50) for IV administration of mecamylamine-HC1 (MEC), ET-1 and Ac-D-Bhg-Leu-Asp-Ile-N-MeIle-Trp (Example 19) Seq ID No: 20, and carotid cannulated (PE50) for arterial blood pressure measurements. Rats were attached to a swivel for freedom of movement, and food and water were available ad lib. Prior to the experiment, the animals were allowed to recover from anesthesia for 60 minutes. […] Ac-D-Bhg-Leu-Asp-Ile-N-MeIle-TrP (Example 19) Seq ID No: 20 was administered at a dose of 10 mg/kg IV.

[2] = test system: endothelin receptor, cultured rabbit renal artery vascular smooth muscle cells; assay: Inhibition of ET-1 stimulated arachidonic acid release (AAR-A); format: cell-based; details: ET-1 0.3 nM
Procedure: as §1, §2

Structure (SMILES) | IC50 [1] | duration of activity in vivo (ET-1 pressor activity) | inhibition of ET-1 pressor activity (ET-1 pressor activity; 5 minutes postdose) | inhibition of ET-1 pressor activity (ET-1 pressor activity; 30 minutes postdose) | IC50 [2]
CC[C@H](C)[C@H](NC(=O)[C@H](CC(=O)O)NC(=O)[C@H](CC(C)C)NC(=O)[C@H](NC(C)=O)C1c2ccccc2CCc2ccccc21)C(=O)N[C@H](C(=O)N[C@@H](Cc1c[nH]c2ccccc12)C(=O)O)[C@@H](C)CC [Example 1, Ac-D-Bhg-Leu-Asp-Ile-Ile-Trp] (HELM PEPTIDE1{[ac].[O=C([C@H](N[*:1])C1c2ccccc2CCc2ccccc21)[*:2]].L.D.I.I.W}$$$$V2.0) | 20 nM |  |  |  | 
CC[C@H](C)[C@H](NC(=O)[C@H](CC(=O)O)NC(=O)[C@H](CC(C)C)NC(=O)[C@H](NC(C)=O)C1c2ccccc2CCc2ccccc21)C(=O)N(C)[C@H](C(=O)N[C@@H](Cc1c[nH]c2ccccc12)C(=O)O)[C@@H](C)CC [Example 19, Ac-D-Bhg-Leu-Asp-Ile-N-MeIle-Trp] (HELM PEPTIDE1{[ac].[O=C([C@H](N[*:1])C1c2ccccc2CCc2ccccc21)[*:2]].L.D.I.[meI].W}$$$$V2.0) |  | prolonged activity | 81% | 58% | 4.3 nM
